Ends that are not written are not given here.
B1: HLA-A24-binding peptide of SEQ ID NO 1 (WT1 peptide, SEQ NAME 356) (peptide)
peptide: DFKDCERRF
notes: Synthesised by the Fmoc solid-phase method, purity 95% or higher

These molecules were tested against HLA-A2 molecule, product of the HLA-A*0201 gene (Homo sapiens, UniProt P04439, D140Y/D185E/D98H/E176V/E277Q/G131W/G231S/I119V/I121R/I166T/I218V/L300P/L318F/N151K/N90K/P208A/P217A/Q86G/Q94H/R138H/R169H/T345S) (assay: Experiment of binding peptide to HLA-A2 molecule (JY cells, flow cytometer)). Settings: not given.
Description: (§1) <Experiment of Binding Peptide to HLA-A2 Molecule>
(§2) JY cells were first exposed to acidic conditions at a pH of 3.8 for 30 seconds, thus dissociating and removing a light chain β2m and an endogenous peptide, which were noncovalently associated with the HLA-A*0201 molecule. After neutralization, a reassociation experiment was carried out.
(§3) The above-mentioned JY cells and the purified β2m were added to stepped dilutions of peptide for which the binding ability would be measured, and incubation was carried out on ice for 4 hours. HLA-A*0201 molecules that had reassociated up to this point were stained using the associating type specific fluorescently-labeled monoclonal antibody BB7.2.
(§4) Subsequently, the amount of fluorescence per cell was measured using a flow cytometer and a dissociation constant Kd value in molar concentration was calculated by a published method (Udaka et al., Immunogenetics, 51, 816-828, 2000).
For NMTKLQLAL [compound 49], the Kd was 3.71 µM.
NLGATLKGV [compound 31] gave a Kd of 8.17 µM.
QQYSVPPPV [compound 39] gave a Kd of 3.24 µM.
With ILCGAQYRI [compound 40] the Kd was 7.51 µM.
Work on ALLPAVPSL [compound 33] yielded a Kd of 0.0143 µM.
ALLLRTPYS [compound 38] showed a Kd of 4.69 µM.
GVFRGIQDV [compound 51] was tested, and the Kd was 1.41 µM.
NLYQMTSQL [compound 44] gave a Kd of 1.49 µM.

Same assay, conditions: −log Kd value (Kd in molar concentration); HLA-A2, JY cells, on ice 4 hours; read-out: BINDING EXPERIMENT DATA (converted)
Molecule VAAGSSSSV [compound 43] has a Kd of 9.95 µM.

Each molecule was assayed on human HLA-A type molecule (assay: Binding experiment, result stated in words for HLA-A type molecule). Settings: not given.
Description: <Experiment of Binding Peptide to HLA-A24 Molecule>
The ability of a peptide to bind to an HLA-A24 molecule, which is a product of the HLA-A*2402 gene, was measured using C1R-A24 cells expressing the HLA-A24 molecule (cells prepared by Professor Masafumi Takiguchi, Kumamoto University being supplied with permission by Assistant Professor Masaki Yasukawa, Ehime University).
C1R-A24 cells were first exposed to acidic conditions at a pH of 3.3 for 30 seconds, thus dissociating and removing a light chain β2m, which is associated with HLA class I molecules in common, and an endogenous peptide originally bound to the HLA-A*2402 molecule. After neutralization, purified β2m was added to C1R-A24 cells, the obtained product was added to serial dilutions of a peptide, and incubated on ice for 4 hours. Staining was carried out using fluorescently labeled monoclonal antibody 17A12, which recognizes association (MHC-pep) of the three members, that is, HLA-A*2402 molecule, the peptide, and β2m, which had reassociated during the incubation.
Subsequently, the MHC-pep count per C1R-A24 cell (proportional to the strength of fluorescence of the above-mentioned fluorescent antibody) was quantitatively measured using an FACScan fluorescence-activated cell sorter (Becton Dickinson Biosciences). A binding dissociation constant Kd value between the HLA-A24 molecule and the peptide was calculated from the average strength of fluorescence per cell by a published method (Udaka et al., Immunogenetics, 51, 816-828, 2000).
as §1, §2, §3, §4
QYRIHTHGV [compound 30] was tested, and the “binding to a human HLA-A type molecule (in words)” value (shortened to “binding”) was “experimentally confirmed to bind”.
With PPPPPPHSF [compound 4] the “binding” value was “experimentally confirmed to bind”.
In the case of ILCGAQYRI [compound 14], the “binding” value is reported as “experimentally confirmed to bind”.
For ALLPAVPSL [compound 2], the “binding” value was “experimentally confirmed to bind”.
In the case of SFIKQEPSW [compound 6], the “binding” value is reported as “experimentally confirmed to bind”.
DVRDLNALL [compound 5] was tested, and the “binding” value was “experimentally confirmed to bind”.
DFKDCERRF [compound 1] was tested, and the “binding” value was “experimentally confirmed to bind”.
In the case of NMTKLQLAL [compound 10], the “binding” value is reported as “experimentally confirmed to bind”.
For NLYQMTSQL [compound 29], the “binding” value was “experimentally confirmed to bind”.
YRIHTHGVF [compound 3] was tested, and the “binding” value was “experimentally confirmed to bind”.
For PPPPPHSFI [compound 7], the “binding” value was “experimentally confirmed to bind”.

What follows are molecules tested against T1, HLA-A2 molecule (product of the HLA-A*0201 gene) on JY cells (human) (assay: reassociation on acid-stripped JY cells with added beta2m, mAb BB7.2 staining, flow cytometry). Settings: not given.
T1 construct: MHC class I molecule on cells; Emptied by acid treatment (pH 3.8, 30 s), then reassociated with added purified beta2m and the test peptide; also called HLA-A*0201 molecule; human HLA-A2 molecule
For NLGATLKGV [HLA-A2-binding peptide of SEQ ID NO 31 (WT1 peptide, SEQ NAME 242)], the “-log Kd” value was 5.09 -log Kd (Kd in molar concentration).
For NLYQMTSQL [HLA-A2-binding peptide of SEQ ID NO 44 (WT1 peptide, SEQ NAME 225)], the “-log Kd” value was 5.83 -log Kd (Kd in molar concentration).
For ALLPAVPSL [HLA-A2-binding peptide of SEQ ID NO 33 (WT1 peptide, SEQ NAME 10)], the “-log Kd” value was 7.84 -log Kd (Kd in molar concentration).
With NMTKLQLAL (also called NMTKLQLAL) [HLA-A2-binding peptide of SEQ ID NO 49 (WT1 peptide, SEQ NAME 441)] the “-log Kd” value was 5.43 -log Kd (Kd in molar concentration).
For VAAGSSSSV [HLA-A2-binding peptide of SEQ ID NO 43 (WT1 peptide, SEQ NAME 250)], the “-log Kd” value was 5 -log Kd (Kd in molar concentration).
In the case of ILCGAQYRI (also called ILOGAQYRI) [HLA-A2-binding peptide of SEQ ID NO 40 (WT1 peptide, SEQ NAME 280)], the “-log Kd” value is reported as 5.12 -log Kd (Kd in molar concentration).
For QQYSVPPPV [HLA-A2-binding peptide of SEQ ID NO 39 (WT1 peptide, SEQ NAME 191)], the “-log Kd” value was 5.49 -log Kd (Kd in molar concentration).
With GVFRGIQDV [HLA-A2-binding peptide of SEQ ID NO 51 (WT1 peptide, SEQ NAME 292)] the “-log Kd” value was 5.85 -log Kd (Kd in molar concentration).
ALLLRTPYS [HLA-A2-binding peptide of SEQ ID NO 38 (WT1 peptide, SEQ NAME 214)] was tested, and the “-log Kd” value was 5.33 -log Kd (Kd in molar concentration).

These molecules were tested against T2, HLA-A24 molecule (product of the HLA-A*2402 gene) on C1R-A24 cells (human) (assay: reassociation on acid-stripped C1R-A24 cells with added beta2m, mAb 17A12 staining, flow cytometry). Settings: not given.
T2 construct: MHC class I molecule on cells; Emptied by acid treatment (pH 3.3, 30 s), then reassociated with added purified beta2m and the test peptide; also called HLA-A*2402 molecule; human HLA-A24 molecule
With DVRDLNALL [HLA-A24-binding peptide of SEQ ID NO 5 (WT1 peptide, SEQ NAME 4)] the “-log Kd” value was 4.45 -log Kd (Kd in molar concentration).
With PPPPPHSFI [HLA-A24-binding peptide of SEQ ID NO 7 (WT1 peptide, SEQ NAME 64)] the “-log Kd” value was 4.4 -log Kd (Kd in molar concentration).
ALLPAVPSL [HLA-A24-binding peptide of SEQ ID NO 2 (WT1 peptide, SEQ NAME 10)] was tested, and the “-log Kd” value was 9.16 -log Kd (Kd in molar concentration).
For NLYQMTSQL [HLA-A24-binding peptide of SEQ ID NO 29 (WT1 peptide, SEQ NAME 225)], the “-log Kd” value was 4.38 -log Kd (Kd in molar concentration).
B1 was tested, and the “-log Kd” value was 4.4 -log Kd (Kd in molar concentration).
In the case of YRIHTHGVF [HLA-A24-binding peptide of SEQ ID NO 3 (WT1 peptide, SEQ NAME 286)], the “-log Kd” value is reported as 4.39 -log Kd (Kd in molar concentration).
With SFIKQEPSW [HLA-A24-binding peptide of SEQ ID NO 6 (WT1 peptide, SEQ NAME 70)] the “-log Kd” value was 8.16 -log Kd (Kd in molar concentration).
With QYRIHTHGV [HLA-A24-binding peptide of SEQ ID NO 30 (WT1 peptide, SEQ NAME 285)] the “-log Kd” value was 5.62 -log Kd (Kd in molar concentration).
In the case of ILCGAQYRI (also called ILOGAQYRI) [HLA-A24-binding peptide of SEQ ID NO 14 (WT1 peptide, SEQ NAME 280)], the “-log Kd” value is reported as 5.9 -log Kd (Kd in molar concentration).
With PPPPPPHSF [HLA-A24-binding peptide of SEQ ID NO 4 (WT1 peptide, SEQ NAME 63)] the “-log Kd” value was 4.4 -log Kd (Kd in molar concentration).
In the case of NMTKLQLAL (also called NMTKLQLAL) [HLA-A24-binding peptide of SEQ ID NO 10 (WT1 peptide, SEQ NAME 441)], the “-log Kd” value is reported as 6.38 -log Kd (Kd in molar concentration).
